# Results published in PubChem BioAssay AID256 (DTP/NCI, 2004).
# Values joined by “and” are separate entries in the source; they are usually repeats but may differ in a detail not shown here. Equal entries are not always repeated. Inconclusive results and toxic doses are left out.
# System: CD2F1 mice, L1210 leukemia ip, survival T/C
# Experiment: NCI In Vivo Anticancer Drug Screen. Data for tumor model L1210 Leukemia (intraperitoneal) in CD2F1 (CDF1) mice
# Settings: higher = longer survival
# In short: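 Implant tumor; dose compound or vehicle; measure endpoint in both groups; report treated divided by control.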
# [1] = endpoint: mean survival time, dose: 100.0 mg/kg/injection, schedule: Q04DX003 (ip), vehicle: saline with Tween-80
# [2] = endpoint: mean survival time, dose: 200.0 mg/kg/injection, schedule: Q04DX003 (ip), vehicle: saline with Tween-80
# [3] = endpoint: mean survival time, dose: 400.0 mg/kg/injection, schedule: Q04DX003 (ip), vehicle: saline with Tween-80
# [4] = endpoint: mean survival time, dose: 100.0 mg/kg/injection, schedule: Q04DX003 (ip), vehicle: saline
# [5] = endpoint: mean survival time, dose: 200.0 mg/kg/injection, schedule: Q04DX003 (ip), vehicle: saline
# [6] = endpoint: mean survival time, dose: 400.0 mg/kg/injection, schedule: Q04DX003 (ip), vehicle: saline
# [7] = endpoint: mean survival time, dose: 12.5 mg/kg/injection, schedule: Q01DX009 (ip), vehicle: saline with Tween-80
# [8] = endpoint: mean survival time, dose: 25.0 mg/kg/injection, schedule: Q01DX009 (ip), vehicle: saline with Tween-80
# [9] = endpoint: mean survival time, dose: 50.0 mg/kg/injection, schedule: Q01DX009 (ip), vehicle: saline with Tween-80
# [10] = endpoint: mean survival time, dose: 50.0 mg/kg/injection, schedule: Q04DX003 (ip), vehicle: saline
# [11] = endpoint: mean survival time, dose: 100.0 mg/kg/injection, schedule: Q01DX009 (ip), vehicle: saline with Tween-80
compound,measurement,setting,value
Cc1ccc(S(=O)(=O)OCC2C(COS(=O)(=O)c3ccc(C)cc3)C3CCC2C2C3C3C2C2(C)C(=O)C3(C)C(c3ccccc3)=C2c2ccccc2)cc1 (stereo not given),T/C,"endpoint: mean survival time, dose: 100.0 mg/kg/injection, schedule: Q04DX002 (ip), vehicle: other",102 % of control
same,T/C,"endpoint: mean survival time, dose: 200.0 mg/kg/injection, schedule: Q04DX002 (ip), vehicle: other",102 % of control
same,T/C,"endpoint: mean survival time, dose: 400.0 mg/kg/injection, schedule: Q04DX002 (ip), vehicle: other",111 % of control
CCCCCC(=O)C(C)CC (stereo not given),T/C,[1],96 % of control
same,T/C,[2],104 % of control
same,T/C,[3],94 % of control
COc1cc(CCN2CC3C(C(=O)O)C4C=CC3(C2)O4)ccc1OCc1ccccc1 (stereo not given),T/C,"endpoint: mean survival time, dose: 100.0 mg/kg/injection, schedule: Q04DX002 (ip), vehicle: saline with Tween-80",95 % of control
same,T/C,"endpoint: mean survival time, dose: 200.0 mg/kg/injection, schedule: Q04DX002 (ip), vehicle: saline with Tween-80",95 % of control
same,T/C,"endpoint: mean survival time, dose: 400.0 mg/kg/injection, schedule: Q04DX002 (ip), vehicle: saline with Tween-80",98 % of control
CC1=C(N2CC2C)C(=O)c2c(COC(N)=O)c3n(c2C1=O)CC1NC31 (stereo not given),T/C,"endpoint: mean survival time, dose: 2.5 mg/kg/injection, schedule: Q01DX001 (ip), vehicle: distilled water + Tween-80",111 % of control
same,T/C,"endpoint: mean survival time, dose: 5.0 mg/kg/injection, schedule: Q01DX001 (ip), vehicle: distilled water + Tween-80",101 % of control
same,T/C,"endpoint: mean survival time, dose: 10.0 mg/kg/injection, schedule: Q01DX001 (ip), vehicle: distilled water + Tween-80",111 % of control
same,T/C,"endpoint: mean survival time, dose: 20.0 mg/kg/injection, schedule: Q01DX001 (ip), vehicle: distilled water + Tween-80",122 % of control
c1cc[n+](CC[n+]2ccccc2)cc1,T/C,[4],102 % of control
same,T/C,[5],100 % of control
same,T/C,[6],111 % of control
ON(C(=S)Nc1ccccc1)c1ccccc1,T/C,"endpoint: mean survival time, dose: 100.0 mg/kg/injection, schedule: Q01DX001 (ip), vehicle: saline",93 % of control
same,T/C,"endpoint: mean survival time, dose: 200.0 mg/kg/injection, schedule: Q01DX001 (ip), vehicle: saline",98 % of control
same,T/C,"endpoint: mean survival time, dose: 400.0 mg/kg/injection, schedule: Q01DX001 (ip), vehicle: saline",97 % of control
Cc1cc2nc(Cc3ccccc3)[nH]c2cc1C,T/C,[7],102 % of control
same,T/C,[8],95 % of control
same,T/C,[9],91 % of control
same,T/C,[1],94 % of control
same,T/C,[2],86 % of control
[I][Pt+2][I].[NH-]N1CCN([NH-])CC1,T/C,"endpoint: mean survival time, dose: 3.13 mg/kg/injection, schedule: Q04DX003 (ip), vehicle: distilled water + Tween-80",102 % of control
same,T/C,"endpoint: mean survival time, dose: 6.25 mg/kg/injection, schedule: Q04DX003 (ip), vehicle: distilled water + Tween-80",100 % of control
same,T/C,"endpoint: mean survival time, dose: 12.5 mg/kg/injection, schedule: Q04DX003 (ip), vehicle: distilled water + Tween-80",102 % of control
same,T/C,"endpoint: mean survival time, dose: 25.0 mg/kg/injection, schedule: Q04DX003 (ip), vehicle: distilled water + Tween-80",102 % of control
same,T/C,"endpoint: mean survival time, dose: 50.0 mg/kg/injection, schedule: Q04DX003 (ip), vehicle: distilled water + Tween-80",104 % of control
same,T/C,"endpoint: mean survival time, dose: 100.0 mg/kg/injection, schedule: Q04DX003 (ip), vehicle: distilled water + Tween-80",102 % of control
same,T/C,"endpoint: mean survival time, dose: 200.0 mg/kg/injection, schedule: Q04DX003 (ip), vehicle: distilled water + Tween-80",100 % of control
O=C1NC2COC3COc4ccccc4OC3C2N1Cc1ccccc1 (stereo not given),T/C,"endpoint: mean survival time, dose: 75.0 mg/kg/injection, schedule: Q01DX001 (ip), vehicle: saline with Tween-80",93 % of control
same,T/C,"endpoint: mean survival time, dose: 150.0 mg/kg/injection, schedule: Q01DX001 (ip), vehicle: saline with Tween-80",95 % of control
same,T/C,"endpoint: mean survival time, dose: 300.0 mg/kg/injection, schedule: Q01DX001 (ip), vehicle: saline with Tween-80",93 % of control
CN(C)N=Nc1ccc(C(=O)N/N=C/c2ccc([N+](=O)[O-])cc2)cc1,T/C,[4],97 % of control
same,T/C,[5],93 % of control
same,T/C,[6],93 % of control
CC1CC1C(N)=O (stereo not given),T/C,"endpoint: mean survival time, dose: 50.0 mg/kg/injection, schedule: Q04DX002 (ip), vehicle: saline",103 % of control
same,T/C,"endpoint: mean survival time, dose: 100.0 mg/kg/injection, schedule: Q04DX002 (ip), vehicle: saline",98 % of control and 102 % of control
same,T/C,"endpoint: mean survival time, dose: 200.0 mg/kg/injection, schedule: Q04DX002 (ip), vehicle: saline",98 % of control and 103 % of control
same,T/C,"endpoint: mean survival time, dose: 400.0 mg/kg/injection, schedule: Q04DX002 (ip), vehicle: saline",101 % of control and 104 % of control
same,T/C,"endpoint: mean survival time, dose: 600.0 mg/kg/injection, schedule: Q04DX002 (ip), vehicle: saline",98 % of control
same,T/C,"endpoint: mean survival time, dose: 800.0 mg/kg/injection, schedule: Q04DX002 (ip), vehicle: saline",100 % of control
O=C1CC2c3[nH]c4ccccc4c3CCN2C2=C1CCCC2 (stereo not given),T/C,[1],100 % of control
same,T/C,[2],103 % of control
CCCC(C)c1ccccc1O (stereo not given),T/C,[8],102 % of control
same,T/C,"endpoint: mean survival time, dose: 25.0 mg/kg/injection, schedule: Q04DX003 (ip), vehicle: saline",97 % of control
same,T/C,[9],98 % of control
same,T/C,[10],105 % of control
same,T/C,[11],92 % of control
same,T/C,[4],94 % of control
Cc1ccc(NC(=O)c2ccccc2C(=O)O)cc1,T/C,[1],101 % of control
same,T/C,[2],97 % of control
same,T/C,[3],95 % of control
O=C(OCC1OC(n2nc(SCc3ccccc3)c(=O)[nH]c2=O)C(OC(=O)c2ccccc2)C1OC(=O)c1ccccc1)c1ccccc1 (stereo not given),T/C,"endpoint: mean survival time, dose: 12.5 mg/kg/injection, schedule: Q01DX005 (ip), vehicle: distilled water + Tween-80",93 % of control
same,T/C,"endpoint: mean survival time, dose: 25.0 mg/kg/injection, schedule: Q01DX005 (ip), vehicle: distilled water + Tween-80",95 % of control
same,T/C,"endpoint: mean survival time, dose: 50.0 mg/kg/injection, schedule: Q01DX005 (ip), vehicle: distilled water + Tween-80",97 % of control
same,T/C,"endpoint: mean survival time, dose: 100.0 mg/kg/injection, schedule: Q01DX005 (ip), vehicle: distilled water + Tween-80",88 % of control
O=C(O)Cc1cc2c(cc1I)OCO2,T/C,[1],100 % of control
same,T/C,[2],95 % of control
same,T/C,[3],101 % of control
C[n+]1ccc(Nc2ccc(NC(=O)c3ccc(Nc4cc[n+](C)c5ccc(N)cc45)cc3N)cc2)cc1,T/C,"endpoint: mean survival time, dose: 2.0 mg/kg/injection, schedule: Q01DX009 (ip), vehicle: water",205 % of control
same,T/C,"endpoint: mean survival time, dose: 4.0 mg/kg/injection, schedule: Q01DX009 (ip), vehicle: water",316 % of control
[N-]=[N+]=NC1CC(n2ccc(=O)[nH]c2=O)OC1COC(c1ccccc1)(c1ccccc1)c1ccccc1 (stereo not given),T/C,"endpoint: median survival time, dose: 12.5 mg/kg/injection, schedule: Q01DX005 (ip), vehicle: saline with Tween-80",96 % of control
same,T/C,"endpoint: median survival time, dose: 25.0 mg/kg/injection, schedule: Q01DX005 (ip), vehicle: saline with Tween-80",101 % of control
same,T/C,"endpoint: median survival time, dose: 50.0 mg/kg/injection, schedule: Q01DX005 (ip), vehicle: saline with Tween-80",94 % of control
same,T/C,"endpoint: median survival time, dose: 100.0 mg/kg/injection, schedule: Q01DX005 (ip), vehicle: saline with Tween-80",95 % of control
same,T/C,"endpoint: median survival time, dose: 200.0 mg/kg/injection, schedule: Q01DX005 (ip), vehicle: saline with Tween-80",91 % of control
CNC(=O)c1nc2c(nc1NC)n(C)c(=O)n2C,T/C,"endpoint: mean survival time, dose: 12.5 mg/kg/injection, schedule: Q01DX005 (ip), vehicle: other",93 % of control
same,T/C,"endpoint: mean survival time, dose: 25.0 mg/kg/injection, schedule: Q01DX005 (ip), vehicle: other",90 % of control
same,T/C,"endpoint: mean survival time, dose: 50.0 mg/kg/injection, schedule: Q01DX005 (ip), vehicle: other",95 % of control
COc1cc(NC2CCCCC2O)c2nc(-c3ccc(Cl)cc3)ccc2c1 (stereo not given),T/C,[10],110 % of control
same,T/C,[4],96 % of control
same,T/C,[5],107 % of control
same,T/C,[6],112 % of control
NC(=O)c1c(F)c(F)c(Oc2c(F)c(F)c(Oc3c(F)c(F)c(C(N)=O)c(F)c3F)c(F)c2F)c(F)c1F,T/C,[7],103 % of control
same,T/C,"endpoint: mean survival time, dose: 12.5 mg/kg/injection, schedule: Q04DX003 (ip), vehicle: saline with Tween-80",101 % of control
same,T/C,[8],100 % of control
same,T/C,"endpoint: mean survival time, dose: 25.0 mg/kg/injection, schedule: Q04DX003 (ip), vehicle: saline with Tween-80",101 % of control
same,T/C,[9],101 % of control
same,T/C,"endpoint: mean survival time, dose: 50.0 mg/kg/injection, schedule: Q04DX003 (ip), vehicle: saline with Tween-80",98 % of control
CC(=O)Nc1ccc(S(=O)(=O)/N=C2\C=CC(=O)c3ccccc32)cc1,T/C,[9],98 % of control
same,T/C,"endpoint: mean survival time, dose: 100.0 mg/kg/injection, schedule: Q01DX001 (ip), vehicle: saline with Tween-80",104 % of control
same,T/C,[11],100 % of control
same,T/C,"endpoint: mean survival time, dose: 200.0 mg/kg/injection, schedule: Q01DX001 (ip), vehicle: saline with Tween-80",111 % of control
COC12[C@@H]3N[C@@H]3CN1C1=C(C(=O)C(N3CCCC(O)C3)=C(C)C1=O)[C@@H]2COC(N)=O (stereo not given in full),T/C,"endpoint: median survival time, dose: 3.0 mg/kg/injection, schedule: Q01DX001 (ip), vehicle: saline",106 % of control
same,T/C,"endpoint: median survival time, dose: 6.0 mg/kg/injection, schedule: Q01DX001 (ip), vehicle: saline",111 % of control
same,T/C,"endpoint: median survival time, dose: 12.0 mg/kg/injection, schedule: Q01DX001 (ip), vehicle: saline",118 % of control and 98 % of control
same,T/C,"endpoint: median survival time, dose: 24.0 mg/kg/injection, schedule: Q01DX001 (ip), vehicle: saline",108 % of control
same,T/C,"endpoint: median survival time, dose: 48.0 mg/kg/injection, schedule: Q01DX001 (ip), vehicle: saline",112 % of control
